Reference: the NIST ThermoML archive (doi:10.1021/je800925v)
± gives the expanded uncertainty stated by the source.

Test: xn = mol fraction of the nth substance listed
Conditions: Liquid

CCCCCCCCCC [decane] + CCO
Conditions | mass density [kg/m3] | viscosity [mPa·s]
285.65 K, x2 = 0.602 | – | 1.158 ± 0.031
285.65 K, x2 = 0.694 | 757.3 ± 2.3 | 1.183 ± 0.031
285.65 K, x2 = 0.799 | 764.7 ± 2.3 | 1.22 ± 0.032
285.65 K, x2 = 0.905 | 777.4 ± 2.2 | 1.278 ± 0.033
288.15 K, x2 = 0.098 | 735 ± 2.4 | 0.9574 ± 0.028
288.15 K, x2 = 0.198 | 736.7 ± 2.4 | 0.9702 ± 0.029
288.15 K, x2 = 0.301 | 739 ± 2.4 | 0.9738 ± 0.029
288.15 K, x2 = 0.397 | 742 ± 2.4 | 1.003 ± 0.029
288.15 K, x2 = 0.501 | 745.5 ± 2.4 | 1.056 ± 0.03
288.15 K, x2 = 0.602 | 750.6 ± 2.3 | 1.104 ± 0.03
288.15 K, x2 = 0.694 | 755.2 ± 2.3 | 1.128 ± 0.031
288.15 K, x2 = 0.799 | 762.7 ± 2.3 | 1.163 ± 0.031
288.15 K, x2 = 0.905 | 775.3 ± 2.3 | 1.218 ± 0.032
290.65 K, x2 = 0.098 | 733.1 ± 2.4 | 0.9207 ± 0.028
290.65 K, x2 = 0.198 | 734.8 ± 2.4 | 0.9321 ± 0.028
290.65 K, x2 = 0.301 | 737 ± 2.4 | 0.9348 ± 0.028
290.65 K, x2 = 0.397 | 740 ± 2.4 | 0.9608 ± 0.028
290.65 K, x2 = 0.501 | 743.5 ± 2.4 | 1.009 ± 0.029
290.65 K, x2 = 0.602 | 748.6 ± 2.3 | 1.053 ± 0.03
290.65 K, x2 = 0.694 | 753.1 ± 2.3 | 1.076 ± 0.03
290.65 K, x2 = 0.799 | 760.6 ± 2.3 | 1.11 ± 0.03
290.65 K, x2 = 0.905 | 773.3 ± 2.3 | 1.162 ± 0.031
293.15 K, x2 = 0 | 731 ± 2.4 | 0.9133 ± 0.028
293.15 K, x2 = 0.098 | 731.2 ± 2.4 | 0.8862 ± 0.027
293.15 K, x2 = 0.198 | 732.8 ± 2.4 | 0.8973 ± 0.028
293.15 K, x2 = 0.301 | 735.1 ± 2.4 | 0.8982 ± 0.028
293.15 K, x2 = 0.397 | 738 ± 2.4 | 0.9215 ± 0.028
293.15 K, x2 = 0.501 | 741.5 ± 2.4 | 0.966 ± 0.028
293.15 K, x2 = 0.602 | 746.6 ± 2.4 | 1.006 ± 0.029
293.15 K, x2 = 0.694 | 751.1 ± 2.3 | 1.028 ± 0.029
293.15 K, x2 = 0.799 | 758.5 ± 2.3 | 1.061 ± 0.03
293.15 K, x2 = 0.905 | 771.2 ± 2.3 | 1.109 ± 0.03
295.65 K, x2 = 0.098 | 729.4 ± 2.4 | 0.8534 ± 0.027
295.65 K, x2 = 0.198 | 730.9 ± 2.4 | 0.8635 ± 0.027
295.65 K, x2 = 0.301 | 733.1 ± 2.4 | 0.8638 ± 0.027
295.65 K, x2 = 0.397 | 736 ± 2.4 | 0.8848 ± 0.027
295.65 K, x2 = 0.501 | 739.5 ± 2.4 | 0.9255 ± 0.028
295.65 K, x2 = 0.602 | 744.5 ± 2.4 | 0.962 ± 0.028
295.65 K, x2 = 0.694 | 749 ± 2.3 | 0.983 ± 0.029
295.65 K, x2 = 0.799 | 756.5 ± 2.3 | 1.014 ± 0.029
295.65 K, x2 = 0.905 | 769.1 ± 2.3 | 1.06 ± 0.03
298.15 K, x2 = 0 | 727.2 ± 2.4 | 0.8509 ± 0.027
298.15 K, x2 = 0.098 | 727.3 ± 2.4 | 0.823 ± 0.026
298.15 K, x2 = 0.198 | 728.9 ± 2.4 | 0.8318 ± 0.026
298.15 K, x2 = 0.301 | 731.1 ± 2.4 | 0.8314 ± 0.026
298.15 K, x2 = 0.397 | 734 ± 2.4 | 0.8501 ± 0.027
298.15 K, x2 = 0.501 | 737.5 ± 2.4 | 0.8872 ± 0.027
298.15 K, x2 = 0.602 | 742.5 ± 2.4 | 0.9216 ± 0.028
298.15 K, x2 = 0.694 | 747 ± 2.4 | 0.9407 ± 0.028
298.15 K, x2 = 0.799 | 754.4 ± 2.3 | 0.9698 ± 0.029
298.15 K, x2 = 0.905 | 766.9 ± 2.3 | 1.013 ± 0.029
